Laboratory results from the supplement of paper PMC10307832.

Experiments:
Test in all cases: relative viability (nuclei count vs DMSO), 5 days (fraction); higher = more cells survive
Neratinib = compound: CCOc1cc2ncc(C#N)c(Nc3ccc(OCc4ccccn4)c(Cl)c3)c2cc1NC(=O)/C=C/CN(C)C [Neratinib]
In short: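 Following overnight incubation at 37 °C, lung cancer cell lines in 1536-well plates were pinned with five library-drug doses (not always all listed) in √10 steps on vehicle-anchored plates. The cells then spent 5 days without medium change before a combined fix, permeabilisation and Hoechst stain, 4× imaging and MetaXpress nuclear counts. Viability is the treated-to-vehicle ratio of nuclei, taken as the median across plates. Only plates with control CV below 25% and at least one doubling passed.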

Neratinib + OSI-027 = compound: CCOc1cc2ncc(C#N)c(Nc3ccc(OCc4ccccn4)c(Cl)c3)c2cc1NC(=O)/C=C/CN(C)C [Neratinib] + COc1cccc2cc(-c3nc([C@H]4CC[C@H](C(=O)O)CC4)n4ncnc(N)c34)[nH]c12 [OSI-027] (partner 0.5 µM)
In short: (§1)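 Dosing by pin tool came one day after lung cancer cell lines were seeded in 1536-well plates, using either one drug or a fixed anchor-drug dose plus five library-drug doses (not always all listed) in √10 steps. After 5 days, nuclei were counted on 4× images. Relative viability is treated-well nuclei count divided by vehicle-well nuclei count, and values are medians of duplicate plates.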

Neratinib + Palbociclib = compound: CCOc1cc2ncc(C#N)c(Nc3ccc(OCc4ccccn4)c(Cl)c3)c2cc1NC(=O)/C=C/CN(C)C [Neratinib] + CC(=O)c1c(C)c2cnc(Nc3ccc(N4CCNCC4)cn3)nc2n(C2CCCC2)c1=O [Palbociclib] (partner 0.5 µM)
In short: as §1

Neratinib + Foretinib = compound: CCOc1cc2ncc(C#N)c(Nc3ccc(OCc4ccccn4)c(Cl)c3)c2cc1NC(=O)/C=C/CN(C)C [Neratinib] + COc1cc2c(Oc3ccc(NC(=O)C4(C(=O)Nc5ccc(F)cc5)CC4)cc3F)ccnc2cc1OCCCN1CCOCC1 [Foretinib] (partner 0.25 µM)
In short: as §1

Row | Cell Line | relative viability (Neratinib; 0.01 µM) | relative viability (Neratinib; 0.03162 µM) | relative viability (Neratinib; 0.1 µM) | relative viability (Neratinib; 0.3162 µM) | relative viability (Neratinib; 1 µM) | relative viability (Neratinib + OSI-027; first compound 0.01 µM) | relative viability (Neratinib + OSI-027; first compound 0.03162 µM) | relative viability (Neratinib + OSI-027; first compound 0.1 µM) | relative viability (Neratinib + OSI-027; first compound 0.3162 µM) | relative viability (Neratinib + OSI-027; first compound 1 µM) | relative viability (Neratinib + Palbociclib; first compound 0.01 µM) | relative viability (Neratinib + Palbociclib; first compound 0.03162 µM) | relative viability (Neratinib + Palbociclib; first compound 0.1 µM) | relative viability (Neratinib + Palbociclib; first compound 0.3162 µM) | relative viability (Neratinib + Palbociclib; first compound 1 µM) | relative viability (Neratinib + Foretinib; first compound 0.01 µM) | relative viability (Neratinib + Foretinib; first compound 0.03162 µM) | relative viability (Neratinib + Foretinib; first compound 0.3162 µM) | relative viability (Neratinib + Foretinib; first compound 1 µM) | relative viability (Neratinib + Foretinib; first compound 0.1 µM)
1 | NCI-H322M | 0.956 | 0.926 | 0.784 | 0.491 | 0.288 | 0.515 | 0.592 | 0.519 | 0.365 | 0.307 | 0.468 | 0.475 | 0.417 | 0.376 | 0.41 | 0.863 | 0.958 | 0.408 | 0.361 | –
2 | NCI-H358 | 0.949 | 0.792 | 0.556 | 0.275 | 0.242 | 0.65 | 0.514 | 0.275 | 0.117 | 0.107 | 0.143 | 0.112 | 0.125 | 0.12 | 0.129 | 0.613 | 0.478 | 0.154 | 0.103 | 0.339
3 | NCI-H441 | 1.32 | 1.15 | 0.89 | – | 0.529 | 0.681 | 0.566 | 0.598 | 0.357 | 0.275 | 0.244 | 0.192 | 0.177 | 0.163 | 0.161 | 1.01 | 1.04 | 0.856 | 0.492 | 1.07
4 | NCI-H460 | – | 1.11 | 0.865 | 0.978 | 0.981 | 0.61 | 0.891 | 0.596 | 0.419 | 0.0301 | 0.19 | 0.215 | 0.171 | 0.166 | 0.0933 | 1.12 | 1.15 | 1.04 | 0.87 | 0.862
5 | NCI-H520 | 1.11 | 1.07 | 0.937 | 0.922 | 0.649 | 0.288 | 0.253 | 0.261 | 0.234 | 0.178 | 0.191 | 0.242 | – | 0.213 | 0.183 | 0.96 | – | – | 0.394 | 0.61
6 | NCI-H647 | 1.07 | 1 | 0.931 | – | 0.483 | 0.831 | 0.738 | 0.593 | 0.483 | 0.175 | 0.446 | 0.545 | 0.393 | 0.344 | 0.188 | 1.36 | 1.34 | 1.11 | 0.601 | –
7 | NCI-H650 | 1.02 | 1.04 | 1.12 | 0.662 | 0.877 | 0.546 | 0.544 | 0.553 | 0.46 | 0.456 | 0.372 | 0.306 | 0.293 | 0.294 | 0.371 | 1.1 | 1.03 | 0.873 | 0.884 | 0.952
8 | NCI-H661 | 1.1 | 0.999 | 0.808 | 0.57 | 0.448 | 0.688 | 0.615 | 0.54 | 0.325 | 0.24 | 0.437 | 0.388 | 0.323 | 0.318 | 0.298 | 1.05 | 1.06 | 0.489 | 0.364 | 0.836
9 | NCI-H727 | – | 0.878 | 0.639 | 0.884 | 0.624 | 0.58 | 0.68 | 0.466 | 0.638 | 0.406 | 0.616 | 0.69 | – | 0.639 | 0.538 | 0.978 | 0.709 | 0.842 | 0.558 | 0.793
10 | NCI-H838 | 1 | 1.02 | 0.88 | 0.946 | 0.532 | 0.463 | 0.492 | 0.419 | 0.325 | 0.226 | 0.223 | 0.23 | 0.216 | 0.176 | 0.176 | 1.12 | 1.08 | – | 0.656 | 0.885
11 | NCI-H1355 | 1.11 | 1.02 | 0.833 | 0.933 | 0.826 | 0.402 | 0.379 | 0.346 | 0.358 | 0.277 | 0.38 | 0.41 | 0.348 | 0.302 | 0.274 | – | – | 0.842 | 0.366 | 0.874
12 | NCI-H1395 | 0.994 | 0.948 | 0.992 | 0.917 | 0.654 | – | 0.748 | 0.632 | 0.623 | 0.468 | 0.66 | 0.709 | 0.63 | 0.58 | 0.414 | 0.919 | 1.03 | 1.02 | 0.668 | –
13 | NCI-H1437 | 1.05 | 1.03 | 0.95 | 0.94 | 0.95 | 0.851 | 0.886 | 0.812 | 0.763 | 0.759 | 0.322 | 0.329 | 0.293 | 0.268 | 0.341 | 1.32 | 1.26 | 1.19 | 1.28 | 1.18
14 | NCI-H1650 | 0.985 | 0.906 | 0.833 | 0.68 | 0.694 | 0.557 | 0.598 | 0.435 | – | 0.37 | 0.349 | 0.313 | 0.3 | 0.262 | 0.276 | 1.1 | 1.29 | 0.657 | 0.602 | 0.744
15 | NCI-H1651 | 1.04 | 1.08 | 0.952 | 0.907 | 0.822 | 0.769 | 0.838 | 0.627 | 0.564 | 0.337 | 0.542 | 0.558 | 0.499 | 0.45 | 0.467 | 0.789 | 0.867 | 0.593 | 0.464 | 0.715
16 | NCI-H1666 | 1 | 1.03 | 0.884 | 0.76 | 0.78 | 0.901 | 0.905 | 0.751 | 0.552 | 0.683 | 0.597 | 0.711 | 0.579 | 0.625 | 0.774 | 0.973 | 0.912 | 0.646 | 0.721 | 0.754
